The values below come from paper PMC12102759 (Protein Science : A Publication of the Protein Society, 2025).

Where two headings read alike, the source gives them in different places.

In the assay the test system is PABPC1 PABC. It is filed as binding, human. The conditions noted are these: DMS-BM library, bait PABPC1 PABC, row aa = residue at this position; for DMS-derived PSSM value (averaged), position A6: A = wild type; for DMS-derived PSSM value, position T1 / DMS-derived PSSM value (averaged), position T1: T = wild type; for DMS-derived PSSM value, position E8 / DMS-derived PSSM value, position E10 / DMS-derived PSSM value (averaged), position E8: E = wild type.

[1] abbreviates: prey ATXN2, TLNPNAKEFNPRSF(averaged) over the two overlapping peptides.
Where [2] appears, read: prey ATXN2, peptide TLNPNAKEFNPRSFSQ
Where [3] appears, read: prey ATXN2, peptide TLNPNAKEFNPRSFSQ, F = wild type.
Where [4] appears, read: prey ATXN2, TLNPNAKEFNPRSF(averaged) over the two overlapping peptides, F = wild type.
Setting [5] is: prey ATXN2, TLNPNAKEFNPRSF(averaged) over the two overlapping peptides, L = wild type.
The mark [6] stands for this setting: prey ATXN2, peptide TLNPNAKEFNPRSFSQ, L = wild type.
The mark [7] stands for this setting: prey ATXN2, peptide TLNPNAKEFNPRSFSQ, N = wild type.
Setting [8] is: prey ATXN2, TLNPNAKEFNPRSF(averaged) over the two overlapping peptides, N = wild type.
Where [9] appears, read: prey ATXN2, peptide KSTLNPNAKEFNPRSF, N = wild type.
The mark [10] stands for this setting: prey ATXN2, peptide KSTLNPNAKEFNPRSF, K = wild type.
[11] abbreviates: prey ATXN2, peptide KSTLNPNAKEFNPRSF, P = wild type.
Where [12] appears, read: prey ATXN2, peptide KSTLNPNAKEFNPRSF
Where [13] appears, read: prey ATXN2, peptide KSTLNPNAKEFNPRSF, S = wild type.

For “TLNPNAKEFNPRSF(averaged) A6G (TLNPNGKEFNPRSF)”, under setting [1], the “DMS-derived PSSM value (averaged), position A6” value is given as 0.

Turning to “TLNPNAKEFNPRSF(averaged) P11W (TLNPNAKEFNWRSF)”, under “prey ATXN2, TLNPNAKEFNPRSF(averaged) over the two overlapping peptides, P = wild type”, the “DMS-derived PSSM value (averaged), position P11” value was found to be 0.01933.

Consider “TLNPNAKEFNPRSF(averaged) R12G (TLNPNAKEFNPGSF)”, for which the “DMS-derived PSSM value (averaged), position R12” value (prey ATXN2, TLNPNAKEFNPRSF(averaged) over the two overlapping peptides, R = wild type) turned out to be 0.06327.

TLNPNAKEFNPRSFSQ T1W (WLNPNAKEFNPRSFSQ): the “DMS-derived PSSM value, position T1” value under setting [2] was 0.001527.

For the substance TLNPNAKEFNPRSFSQ F9S (TLNPNAKESNPRSFSQ), the “DMS-derived PSSM value, position F9” value under setting [3] worked out at 0.

Take “TLNPNAKEFNPRSF(averaged) F9P (TLNPNAKEPNPRSF)”: the “DMS-derived PSSM value (averaged), position F9” value under setting [4] was 0.

Take “TLNPNAKEFNPRSF(averaged) T1Q (QLNPNAKEFNPRSF)”: the “DMS-derived PSSM value (averaged), position T1” value under setting [1] is on record as 0.003845.

As for “TLNPNAKEFNPRSF(averaged) L2T (TTNPNAKEFNPRSF)”, the “DMS-derived PSSM value (averaged), position L2” value under setting [5] is 0.

As for “TLNPNAKEFNPRSF(averaged) F14I (TLNPNAKEFNPRSI)”, the “DMS-derived PSSM value (averaged), position F14” value under setting [4] turned out to be 0.0374.

Consider TLNPNAKEFNPRSFSQ E8Y (TLNPNAKYFNPRSFSQ), for which, under setting [2], the “DMS-derived PSSM value, position E8” value came out at 0.04993.

TLNPNAKEFNPRSFSQ K7L (TLNPNALEFNPRSFSQ): where the note is “prey ATXN2, peptide TLNPNAKEFNPRSFSQ, K = wild type”, the “DMS-derived PSSM value, position K7” value is 0.0009142.

With “TLNPNAKEFNPRSF(averaged) S13M (TLNPNAKEFNPRMF)”, for the setting “prey ATXN2, TLNPNAKEFNPRSF(averaged) over the two overlapping peptides, S = wild type”, the “DMS-derived PSSM value (averaged), position S13” value turned out to be 0.01383.

Regarding TLNPNAKEFNPRSFSQ L2W (TWNPNAKEFNPRSFSQ), the “DMS-derived PSSM value, position L2” value under setting [6] turned out to be 0.1455.

For the substance TLNPNAKEFNPRSFSQ N3V (TLVPNAKEFNPRSFSQ), the “DMS-derived PSSM value, position N3” value under setting [7] was 0.

TLNPNAKEFNPRSFSQ E8P (TLNPNAKPFNPRSFSQ): the “DMS-derived PSSM value, position E8” value under setting [2] is 0.2652.

“TLNPNAKEFNPRSF(averaged) N3K (TLKPNAKEFNPRSF)”: the “DMS-derived PSSM value (averaged), position N3” value under setting [8] came to 0.

Consider “TLNPNAKEFNPRSFSQ R12A (TLNPNAKEFNPASFSQ)”, for which the “DMS-derived PSSM value, position R12” value (prey ATXN2, peptide TLNPNAKEFNPRSFSQ, R = wild type) stood at 0.004965.

With “TLNPNAKEFNPRSFSQ F14N (TLNPNAKEFNPRSNSQ)”, under setting [3], the “DMS-derived PSSM value, position F14” value is given as 0.0664.

Consider “TLNPNAKEFNPRSF(averaged) A6F (TLNPNFKEFNPRSF)”, for which the “DMS-derived PSSM value (averaged), position A6” value under setting [1] came out at 0.

For TLNPNAKEFNPRSFSQ L2Q (TQNPNAKEFNPRSFSQ), the “DMS-derived PSSM value, position L2” value under setting [6] is given as 0.

Regarding TLNPNAKEFNPRSFSQ F9P (TLNPNAKEPNPRSFSQ), the “DMS-derived PSSM value, position F9” value under setting [3] amounted to 0.

Regarding KSTLNPNAKEFNPRSF N5G (KSTLGPNAKEFNPRSF), the “DMS-derived PSSM value, position N5” value under setting [9] was determined as 0.

In the case of “TLNPNAKEFNPRSFSQ S15N (TLNPNAKEFNPRSFNQ)”, under “prey ATXN2, peptide TLNPNAKEFNPRSFSQ, S = wild type”, the “DMS-derived PSSM value, position S15” value was found to be 0.007151.

For the substance KSTLNPNAKEFNPRSF K9E (KSTLNPNAEEFNPRSF), under setting [10], the “DMS-derived PSSM value, position K9” value was 0.0298.

In the case of KSTLNPNAKEFNPRSF P6K (KSTLNKNAKEFNPRSF), the “DMS-derived PSSM value, position P6” value under setting [11] stood at 0.

As for “KSTLNPNAKEFNPRSF E10Y (KSTLNPNAKYFNPRSF)”, the “DMS-derived PSSM value, position E10” value under setting [12] was 0.

As for “TLNPNAKEFNPRSF(averaged) E8F (TLNPNAKFFNPRSF)”, the “DMS-derived PSSM value (averaged), position E8” value under setting [1] turned out to be 0.

Turning to KSTLNPNAKEFNPRSF S2P (KPTLNPNAKEFNPRSF), the “DMS-derived PSSM value, position S2” value under setting [13] stood at 0.1938.

On to “TLNPNAKEFNPRSF(averaged) F9K (TLNPNAKEKNPRSF)”, for which the “DMS-derived PSSM value (averaged), position F9” value under setting [4] is 0.003046.

In the case of KSTLNPNAKEFNPRSF L4P (KSTPNPNAKEFNPRSF), for the setting “prey ATXN2, peptide KSTLNPNAKEFNPRSF, L = wild type”, the “DMS-derived PSSM value, position L4” value is reported as 0.

KSTLNPNAKEFNPRSF P6L (KSTLNLNAKEFNPRSF): the “DMS-derived PSSM value, position P6” value under setting [11] amounted to 0.1435.

KSTLNPNAKEFNPRSF N7M (KSTLNPMAKEFNPRSF): the “DMS-derived PSSM value, position N7” value under setting [9] came to 0.02788.

With “KSTLNPNAKEFNPRSF E10N (KSTLNPNAKNFNPRSF)”, the “DMS-derived PSSM value, position E10” value under setting [12] was found to be 0.01939.

With KSTLNPNAKEFNPRSF P6Y (KSTLNYNAKEFNPRSF), the “DMS-derived PSSM value, position P6” value under setting [11] is listed as 0.

As for KSTLNPNAKEFNPRSF N7R (KSTLNPRAKEFNPRSF), the “DMS-derived PSSM value, position N7” value under setting [9] is 0.005056.

With “KSTLNPNAKEFNPRSF P13F (KSTLNPNAKEFNFRSF)”, the “DMS-derived PSSM value, position P13” value under setting [11] stood at 0.002959.

With “TLNPNAKEFNPRSF(averaged) T1E (ELNPNAKEFNPRSF)”, under setting [1], the “DMS-derived PSSM value (averaged), position T1” value came out at 0.1201.

Turning to TLNPNAKEFNPRSFSQ F9G (TLNPNAKEGNPRSFSQ), under setting [3], the “DMS-derived PSSM value, position F9” value was determined as 0.

As for “KSTLNPNAKEFNPRSF E10P (KSTLNPNAKPFNPRSF)”, under setting [12], the “DMS-derived PSSM value, position E10” value is 0.01939.

As for “TLNPNAKEFNPRSF(averaged) T1N (NLNPNAKEFNPRSF)”, under setting [1], the “DMS-derived PSSM value (averaged), position T1” value is 0.01868.

Consider “KSTLNPNAKEFNPRSF P13R (KSTLNPNAKEFNRRSF)”, for which the “DMS-derived PSSM value, position P13” value under setting [11] worked out at 0.

Consider “TLNPNAKEFNPRSFSQ P11Q (TLNPNAKEFNQRSFSQ)”, for which, for the setting “prey ATXN2, peptide TLNPNAKEFNPRSFSQ, P = wild type”, the “DMS-derived PSSM value, position P11” value stood at 0.01526.

On to TLNPNAKEFNPRSFSQ N5P (TLNPPAKEFNPRSFSQ), for which, under setting [7], the “DMS-derived PSSM value, position N5” value is listed as 8.238e-5.

As for KSTLNPNAKEFNPRSF N7V (KSTLNPVAKEFNPRSF), under setting [9], the “DMS-derived PSSM value, position N7” value was determined as 0.01745.

Take “KSTLNPNAKEFNPRSF N12T (KSTLNPNAKEFTPRSF)”: the “DMS-derived PSSM value, position N12” value under setting [9] was found to be 0.02601.

In the case of “TLNPNAKEFNPRSF(averaged) N3A (TLAPNAKEFNPRSF)”, the “DMS-derived PSSM value (averaged), position N3” value under setting [8] was 0.

On to “TLNPNAKEFNPRSF(averaged) T1L (LLNPNAKEFNPRSF)”, for which, under setting [1], the “DMS-derived PSSM value (averaged), position T1” value turned out to be 0.06577.

For TLNPNAKEFNPRSFSQ T1Y (YLNPNAKEFNPRSFSQ), the “DMS-derived PSSM value, position T1” value under setting [2] came out at 0.3306.

Turning to “TLNPNAKEFNPRSF(averaged) L2A (TANPNAKEFNPRSF)”, the “DMS-derived PSSM value (averaged), position L2” value under setting [5] was found to be 0.

Consider “TLNPNAKEFNPRSF(averaged) T1D (DLNPNAKEFNPRSF)”, for which the “DMS-derived PSSM value (averaged), position T1” value under setting [1] came out at 0.05337.

As for KSTLNPNAKEFNPRSF K9S (KSTLNPNASEFNPRSF), the “DMS-derived PSSM value, position K9” value under setting [10] was 0.05789.

For “TLNPNAKEFNPRSF(averaged) T1P (PLNPNAKEFNPRSF)”, the “DMS-derived PSSM value (averaged), position T1” value under setting [1] was 0.02725.

With “KSTLNPNAKEFNPRSF R14E (KSTLNPNAKEFNPESF)”, the “DMS-derived PSSM value, position R14” value (prey ATXN2, peptide KSTLNPNAKEFNPRSF, R = wild type) was 0.01157.

Take TLNPNAKEFNPRSFSQ N5W (TLNPWAKEFNPRSFSQ): under setting [7], the “DMS-derived PSSM value, position N5” value came to 0.001259.

On to “KSTLNPNAKEFNPRSF S15W (KSTLNPNAKEFNPRWF)”, for which, under setting [13], the “DMS-derived PSSM value, position S15” value is recorded as 0.009844.

As to “TLNPNAKEFNPRSF(averaged) A6K (TLNPNKKEFNPRSF)”, the “DMS-derived PSSM value (averaged), position A6” value under setting [1] was found to be 0.

Regarding “KSTLNPNAKEFNPRSF F11M (KSTLNPNAKEMNPRSF)”, the “DMS-derived PSSM value, position F11” value (prey ATXN2, peptide KSTLNPNAKEFNPRSF, F = wild type) is 0.

As for KSTLNPNAKEFNPRSF S2K (KKTLNPNAKEFNPRSF), the “DMS-derived PSSM value, position S2” value under setting [13] is 0.

Regarding KSTLNPNAKEFNPRSF P6N (KSTLNNNAKEFNPRSF), the “DMS-derived PSSM value, position P6” value under setting [11] is reported as 0.

“TLNPNAKEFNPRSF(averaged) N10V (TLNPNAKEFVPRSF)”: under setting [8], the “DMS-derived PSSM value (averaged), position N10” value stood at 0.105.

For “TLNPNAKEFNPRSF(averaged) E8L (TLNPNAKLFNPRSF)”, the “DMS-derived PSSM value (averaged), position E8” value under setting [1] came to 0.
